According to patent publication US20260193222A1, “COMPOUND AND USE THEREOF IN TREATMENT OF TREG-RELATED DISEASES” (BENETHERA (SHAOXING) BIOTECHNOLOGY CO., LTD., priority 2022, published 2026):

Experiments:
[1] = test system: CS7BL/6 mice with TNBS-induced acute enteritis; experiment: 2,4,6-trinitrobenzene sulfonic acid (TNBS)-induced acute enteritis in mice; type: in vivo; conditions: for weight loss in model animals / disease activity index (DAI) / damage to colon tissue / length of colon: 1 mg/kg, once daily gavage; for weight loss in model animals: day 0 to day 4, FIG. 2; for disease activity index (DAI): day 0 to day 4, FIG. 3; for damage to colon tissue: dissection on day 5, FIG. 5; for length of colon: dissection on day 5, FIGS. 4 and 5; for efficacy compared with tofacitinib: derivative 1 mg/kg versus positive control tofacitinib
Experimental: CS7BL/6 mice, male, and female, 6 to 10 weeks old were used. On day-7 of the experiment, the experimental animals were weighed, and the mice were randomly divided into cages according to their body weights. The animals were allowed to adapt to the environment of the animal room. The animal room was maintained at a constant temperature (23° C.±3° C.) and constant humidity (50% relative humidity). Animals are fed standard laboratory food and have free access to drinking water. On day 0, mice were induced for TNBS colitis by intrarectal injection. The dosage of TNBS was 125 mg/kg. The solvent was 30% alcohol. Each mouse received a volume of 100 μl. After the rectal injection, the mice were inverted for 1 minute to prevent leakage of the drug solution.
The solid O-1602 derivative was dissolved in DMSO at a concentration of 2 mg/ml. The above solution was diluted to 0.1 mg/ml using PBS. TNBS enteritis mice received once daily gavage in a volume of 200 μl and were dosed daily at 11:00 a. m. The dosage of the O-1602 derivative was 1 mg/kg. The treatment schedule for the O-1602 derivative was from day 0 to day 4 of the TNBS. The mice in the control group were administered with an equal volume of solvent by gavage. At the same time, the anti-colitis drug JAK inhibitor tofacitinib was used as a positive control. The experimental results of O-1602 derivatives in this model experiment were compared. The O-1602 derivatives were dissolved in the above-mentioned way; the concentration was 1.5 mg/mL; the volume of intragastric administration was 200 μL; and the dosage was 15 mg/kg.
Mice were observed daily for body weight and anal bleeding, and the daily disease activity index (DAI) was calculated and recorded.
The experiment was terminated on day 5 of TNBS. Mice were euthanized by cervical amputation under isoflurane anesthesia. The mice were dissected and the whole colon was obtained. The length of the colon was measured and photographed.

[2] = O-1602 release of O-1602 derivatives under different pH conditions (HPLC area percentage); type: physicochemical; conditions: for completeness of O-1602 release (in words): partial release with degradation into other impurities
Experimental: Example 1: Experimental on O-1602 Releases of O-1602 Derivatives Under Different pH Conditions
• Chromatographic column: shimnex CS C18 5 μm, 4.6*250 mm • Mobile phase A: 0.1% phosphoric acid in water; mobile phase B: acetonitrile (see Table 1)
Buffer solution (pH 1.6): 32.4 ml of 0.2 mol/L hydrochloric acid was accurately measured, diluted with water to 200 ml, and shaken well.
Phosphate buffer (pH 5.0): a certain amount of 0.2 mol/L sodium dihydrogen phosphate solution was taken and the pH value was adjusted by using 0.2 mol/L sodium hydroxide solution to 5.0.
Phosphate buffer (pH 6.8): a certain amount of 0.2 mol/L sodium dihydrogen phosphate solution was taken and the pH value was adjusted by using 0.2 mol/L sodium hydroxide solution to 6.8.
Phosphate buffer (pH 7.2): a certain amount of 0.2 mol/L sodium dihydrogen phosphate solution was taken and the pH value was adjusted by using 0.2 mol/L sodium hydroxide solution to 7.2.
Phosphate buffer (pH 8.0): a certain amount of 0.2 mol/L sodium dihydrogen phosphate solution was taken and the pH value was adjusted by using 0.2 mol/L sodium hydroxide solution to 8.0.
About 1 mg of O-1602 derivative was placed in a 2 mL centrifuge tube and dissolved by adding 1 mL of acetonitrile. Then 1 mL of buffer solution was added and shaken well. The obtained solution was incubated at 37° C., and sampled for determination respectively after for 2 hours and 4 hours. (The releases of O-1602 were respectively investigated at pH 1.6, pH 5.0, pH 6.8, pH 7.2, and pH 8.0)
Calculations: the content of O-1602 was calculated by area percentage.

[3] = pH 1.6~8.0, 37° C., 2 hours and 4 hours

C=C(C)[C@@H]1CCC(C)=C[C@H]1c1c(C)cc(OC(=O)OCCN(CC)CC)cc1OC(=O)OCCN(CC)CC [Compound 1]
weight loss in model animals [1]: significantly alleviated
Principal component % ([2]; 0 h): 97.185%
Principal component % ([2]; Buffer (pH 1.6), 37° C., 2 h): 96.906%
Principal component % ([2]; Buffer (pH 1.6), 37° C., 4 h): 94.115%
Principal component % ([2]; Buffer (pH 5.0), 37° C., 2 h): 78.030%
O-1602% ([2]; Buffer (pH 5.0), 37° C., 4 h): 0.457%
Principal component % ([2]; Buffer (pH 5.0), 37° C., 4 h): 24.651%
O-1602% ([2]; Buffer (pH 6.8), 37° C., 2 h): 9.801%
O-1602% ([2]; Buffer (pH 6.8), 37° C., 4 h): 20.813%
O-1602% ([2]; Buffer (pH 7.2), 37° C., 2 h): 6.354%
O-1602% ([2]; Buffer (pH 7.2), 37° C., 4 h): 20.172%
O-1602% ([2]; Buffer (pH 8.0), 37° C., 2 h): 11.455%
O-1602% ([2]; Buffer (pH 8.0), 37° C., 4 h): 33.963%
release amount of O-1602 (in words) [2, 3]: relatively high
completeness of O-1602 release (in words) ([2]; pH 1.6~8.0, 37° C.): only partially released

C=C(C)[C@@H]1CCC(C)=C[C@H]1c1c(C)cc(OC(C)=O)cc1OC(C)=O [Compound 2]
release amount of O-1602 (in words) [2, 3]: no O-1602 was released

C=C(C)[C@@H]1CCC(C)=C[C@H]1c1c(C)cc(OC(=O)NC(C(=O)O)C(C)C)cc1OC(=O)NC(C(=O)O)C(C)C (stereo partly shown) [Compound 3]
weight loss in model animals [1]: significantly alleviated
disease activity index (DAI) [1]: significantly alleviated
damage to colon tissue [1]: reduced
length of colon [1]: increased
efficacy compared with tofacitinib [1]: superior efficacy

C=C(C)[C@@H]1CCC(C)=C[C@H]1c1c(C)cc(OC(=O)NCCCCN)cc1O [Compound 6]
weight loss in model animals [1]: significantly alleviated
disease activity index (DAI) [1]: significantly alleviated
damage to colon tissue [1]: reduced
length of colon [1]: increased
efficacy compared with tofacitinib [1]: superior efficacy
release amount of O-1602 (in words) [2, 3]: small amount

C=C(C)[C@@H]1CCC(C)=C[C@H]1c1c(C)cc(OC(=O)C(N)C(C)C)cc1OC(=O)C(N)C(C)C (stereo partly shown) [Compound 7]
weight loss in model animals [1]: significantly alleviated
disease activity index (DAI) [1]: significantly alleviated
damage to colon tissue [1]: reduced
length of colon [1]: increased
efficacy compared with tofacitinib [1]: superior efficacy
Principal component % ([2]; 0 h): 87.691%
Principal component % ([2]; Buffer (pH 1.6), 37° C., 2 h): 79.094%
Principal component % ([2]; Buffer (pH 1.6), 37° C., 4 h): 81.424%
O-1602% ([2]; Buffer (pH 5.0), 37° C., 2 h): 1.088%
Principal component % ([2]; Buffer (pH 5.0), 37° C., 2 h): 26.693%
O-1602% ([2]; Buffer (pH 5.0), 37° C., 4 h): 3.800%
Principal component % ([2]; Buffer (pH 5.0), 37° C., 4 h): 8.307%
O-1602% ([2]; Buffer (pH 6.8), 37° C., 2 h): 1.972%
Principal component % ([2]; Buffer (pH 6.8), 37° C., 2 h): 3.401%
O-1602% ([2]; Buffer (pH 6.8), 37° C., 4 h): 3.518%
Principal component % ([2]; Buffer (pH 6.8), 37° C., 4 h): 1.551%
O-1602% ([2]; Buffer (pH 7.2), 37° C., 2 h): 29.354%
O-1602% ([2]; Buffer (pH 7.2), 37° C., 4 h): 19.343%
O-1602% ([2]; Buffer (pH 8.0), 37° C., 2 h): 11.933%
O-1602% ([2]; Buffer (pH 8.0), 37° C., 4 h): 43.976%
release amount of O-1602 (in words) [2, 3]: relatively high
completeness of O-1602 release (in words) ([2]; pH 1.6~8.0, 37° C.): only partially released

C=C(C)[C@@H]1CCC(C)=C[C@H]1c1c(C)cc(OC(=O)N(C)C)cc1OC(=O)N(C)C [Compound 8]
release amount of O-1602 (in words) [2, 3]: no O-1602 was released
stability (in words) [2, 3]: good stability

C=C(C)[C@@H]1CCC(C)=C[C@H]1c1c(C)cc(OC(=O)NCCN2CCN(C)CC2)cc1OC(=O)NCCN1CCN(C)CC1 [Compound 11]
disease activity index (DAI) [1]: significantly alleviated
damage to colon tissue [1]: reduced
length of colon [1]: increased
efficacy compared with tofacitinib [1]: superior efficacy
release amount of O-1602 (in words) [2, 3]: small amount

C=C(C)[C@@H]1CCC(C)=C[C@H]1c1c(C)cc(OC(=O)CN(C)C)cc1O [Compound 13]
O-1602 release (in words) ([2]; acidic buffer solution (pH 1.6), 37° C., 4 hours): trace amount
release amount of O-1602 (in words) [2, 3]: small amount
